Experimental data published in patent US9597364B2, “Treatment of withdrawal symptoms to aid in nicotine use cessation with Passiflora incarnata” (Campbell University, priority 2011, dated 2017).

Columns and labels:
Male Wistar rats [1] = assay: Effect of passion flower extract on nicotine sensitization (expression of motor sensitization, open field); format: in vivo, rat; settings: 0.4 mg/kg s.c. nicotine days 1-4, challenge day 5
Protocol: To produce nicotine sensitization, rats were injected once/day for 4 consecutive days with either nicotine or vehicle. On day 5, known as the test day, rats were divided into four groups; half of those that had received vehicle on days 1-4 were pre-treated with passion flower extract (vehicle-passion flower group) and the other half with vehicle (vehicle-vehicle group). Analogously, half of the rats that received nicotine on days 1-4 received a pre-treatment of i.p. 1:1 water:glycerin (nicotine-vehicle group) on day 5, while the other half was given a pre-treatment of i.p. passion flower extract (nicotine-passionflower group). Each rat was monitored in the open field for 100 consecutive minutes, starting approximately 23 hours after the day 4 nicotine treatment. Before any injections on day 5, rats were placed in the activity chambers until an injection of passion flower extract or vehicle at 25 minutes, then monitored for another 25 minutes, at which point all rats received an injection of nicotine and were monitored for 50 additional minutes.

Male Wistar rats [2] = settings: 0.4 mg/kg nicotine s.c.
Protocol: Male Wistar rats (Charles River, Raleigh, N.C.) were provided with food and water ad libitum on a 12 hour light/dark cycle for 2-3 weeks before beginning any treatments. For all experiments, rats were approximately 45-65 days old and weighed between 148 and 195 g at the beginning of an experiment. Injections of nicotine or its vehicle (water) were subcutaneous (s.c.) administered at 0.4 mg/kg nicotine (Sigma Aldrich, St. Louis, Mo.) and 2 ml/kg. Injections of aqueous passion flower extract (Nature's Answer, Hauppage, N.Y.) or vehicle (1:1 glycerin:water) were intraperitoneal (i.p.) administered at 800 mg/kg and 0.16 ml/kg.
Drug-naive rats were placed individually in an open field for determination of spontaneous activity using the Limelight video tracking system (ActiMetrics, Wilmette, Ill.). Each rat was monitored in the open field for 30 minutes to determine the time course of habituation. Immediately afterward, each rat was injected with vehicle that was subsequently used for nicotine injection at 2 ml/kg and the rats were monitored for 50 minutes. Then each rat was removed from the chamber briefly to be injected s.c. with 0.4 mg/kg nicotine and monitored for another 90 minutes.
Mean velocity (in cm/s) over each 1 sec period was extracted using the LimeLight software and that data was used to calculate the average and SEM of the mean velocities for each 5 minute interval for each treatment group. Figures show the time at the end of the 5 minute period (e.g., 10 minutes is the 5-10 minute interval). In the preliminary assay of nicotine versus vehicle, there were 6 rats and in the chronic nicotine study there were 8-10 rats in each group.

## CN1CCCC1c1cccnc1 (stereo not shown) [nicotine]
Male Wistar rats [1]
  activity of nicotine-sensitized group (nicotine-vehicle) after challenge dose of nicotine, compared with vehicle-vehicle group: significantly greater activity than the vehicle-vehicle group
Male Wistar rats [2]
  time of peak activity after injection: 5 to 15 min
Male Wistar rats [2]; intervals between 10 and 35 minutes except 15-20 minutes, 2-way ANOVA, Bonferroni p<0.05
  activity compared with vehicle treatment: significantly different from vehicle treatment
Male Wistar rats [2]; vehicle average 0.8±0.1 cm/s
  spontaneous activity (velocity) during the 10-35 minute intervals, average: 1.9±0.2 cm/s
